Measured values published in patent publication US12336973B2, “Cancer therapeutic compositions and methods targeting DNAse1L3” (Providence Health & Services—Oregon, priority 2020, dated 2025).

Tested on: dendritic cells
Experiment: Dendritic cell maturation (CCR7 expression by flow cytometry) in co-culture with untreated or irradiated cancer cells
Type: cell-based
Details: DCs cultured with untreated (0Gy) or irradiated (8Gy) cancer cells; 0, 50 or 100 micromolar FCA; flow cytometry 24 hours after culturing
Experimental: FIG. 4 depicts CCR7 expression in DCs that were cultured with cancer cells, where the cancer cells were untreated (0Gy) or irradiated (8Gy). These co-cultures were treated with 0, 50, or 100 micromolar Fmoc-d-cyclohexylalanine (FCA) to inhibit DNAse1L3.
Dendritic cells were cultured (with untreated or irradiated cancer cells) and treated with increasing doses of FCA, an inhibitor of DNAse1L3 (FIG. 4). Cancer cells were co-cultured with dendritic cells and were treated with 0, 50, or 100 micromolar Fmoc-d-cyclohexylalanine (FCA) to inhibit DNAse1L3.
CCR7 expression on DCs was assessed by flow cytometry 24 hours after culturing.

O=C(N[C@H](CC1CCCCC1)C(=O)O)OCC1c2ccccc2-c2ccccc21 [FCA, Fmoc-d-cyclohexylalanine]
dendritic cell maturation assessed by upregulation of markers including CCR7: stimulates DC maturation
